Measured values reported in patent publication US10500288B2, “Cytotoxic HEXIM1 peptides and uses thereof” (AGENCY FOR SCIENCE, TECHNOLOGY AND RESEARCH, priority 2015, dated 2019).
Square brackets hold non-standard residues; d marks the D form. Ends that are not written are not given here. Peptide text beside a SMILES is read from it.

What was measured:
[1] = test system: HeLa cells; assay: Cell viability (Cell-Titer Glo) in HeLa cells; type: cell-based, human; settings: overnight, various concentrations
Procedure: (§1) Human cell lines including HeLa, HEK293, MCF7, MDA-MB-231, CHO-K1, OPM-2, and WI-38 were obtained from American Type Culture Collection. AML2 and AML3 cells were purchased from Deutsche Sammlung von Mikroorganismen und Zellkulturen. HCT116 p53+/+ and p53−/− cells were kindly given by Dr. Bert Vogelstein. Primary human foreskin fibroblasts (HFF) were obtained from Dr. Mark Stinski. […] MDA-MB-231 and OPM-2 cells were cultured in RPMI-1640 (Gibco) containing 10% FBS and 1% penicillin/streptomycin. All cells were routinely maintained in a 37° C. incubator with 5% CO2.
(§2) Cells were plated in clear-bottomed white walled 96-well plates (Corning) and incubated overnight. Cells were treated with indicated peptides in 1% FBS-containing media for overnight or indicated timings at 37° C. Cell viability was measured with CellTiter-Glo reagent (Promega) according to the manufacturer's instructions. For cytotoxicity assay, cells were plated in black walled 96-well plates (Corning) to allow them to adhere overnight. Upon treatment with a pan-caspase inhibitor, z-VAD-Fmk ([…]) (Sigma) and subsequent treatment with LTV-tagged peptides, cytotoxicity induced was determined by CellTox cytotoxicity assay (Promega) 30 minutes after addition of peptides according to the manufacturer's instructions. Luminescence was determined using an Infinite 200 multiplate reader (Tecan).

[2] = test system: human foreskin fibroblasts (HFF); assay: Cell viability (Cell-Titer Glo) in human foreskin fibroblasts; type: cell-based; settings: HFF normal fibroblasts; overnight, various concentrations
Procedure: as §1, §2

[3] = test system: HEK293 cells; assay: Cell viability (Cell-Titer Glo) in HEK293 cells; type: cell-based, human; settings: HEK293 normal cells; overnight, various concentrations
Procedure: as §1, §2

[4] = test system: MCF7 cells; assay: CellTox cytotoxicity assay with or without z-VAD-Fmk; type: cell-based; settings: 30 μM, thirty minutes at 37° C.
Procedure: HCT116 (p53 WT) and HCT116 (p53 KO) cells were cultured on glass slides overnight, treated with vehicle control (0.5% dimethyl sulfoxide (DMSO)) or the indicated FGF peptides (30 μM). Time-lapse DIC imaging highlights dynamic morphological changes in treated HCT116 cells by spinning disk confocal microscopy. […] In contrast, FGF-BR peptide rapidly induces drastic changes to the cell morphology with rupturing of the plasma membrane accompanied with damages to the nuclear membrane and abnormalities to the nucleolus in both cell types. (B) cytotoxicity fluorescence plots of breast cancer cells MCF7 showing the effect of pan-caspase inhibitor z-VAD-Fmk on cells treated with LTV-tagged BR peptide. […] Data representative of at least three independent experiments performed in triplicate were shown with values expressed as mean±SD.
as §2, with “Cells were treated with indicated peptides in 1% FBS-containing media for overnight or indicated timings at 37° C.” left out, “For cytotoxicity assay, cells were plated in black walled 96-well plates (Corning) to allow them to adhere overnight.” left out

[5] = test system: HCT116 (p53 WT) cells; assay: Time-lapse DIC live cell imaging, HCT116 (p53 WT); type: cell-based, human; settings: 30 μM, within minutes
Procedure: (§3) HCT116 (p53 WT) and HCT116 (p53 KO) cells were cultured on glass slides overnight, treated with vehicle control (0.5% dimethyl sulfoxide (DMSO)) or the indicated FGF peptides (30 μM). Time-lapse DIC imaging highlights dynamic morphological changes in treated HCT116 cells by spinning disk confocal microscopy. […] In contrast, FGF-BR peptide rapidly induces drastic changes to the cell morphology with rupturing of the plasma membrane accompanied with damages to the nuclear membrane and abnormalities to the nucleolus in both cell types. (B) cytotoxicity fluorescence plots of breast cancer cells MCF7 showing the effect of pan-caspase inhibitor z-VAD-Fmk on cells treated with LTV-tagged BR peptide. LTV is a breast cancer cell targeting peptide. MCF7 cells were incubated with or without z-VAD-Fmk (for 90 min) and then with indicated LTV-tagged peptides (30 μM) for thirty minutes at 37° C. Cells treated with LTV-X13 peptide (SEQ ID NO: 14) or vehicles, DMSO (0.5%), were used as negative controls. Treated cells were subjected to the cytotoxicity assay as described in Example 9—Materials and Methods. Data representative of at least three independent experiments performed in triplicate were shown with values expressed as mean±SD.
(§4) The mechanism of cell death induced by the HEXIM1 BR peptide was examined. […]

[6] = test system: HCT116 (p53 KO) cells; assay: Time-lapse DIC live cell imaging, HCT116 (p53 KO); type: cell-based, human; settings: 30 μM, within minutes
Procedure: as §3, §4

[7] = test system: undifferentiated 3T3 mouse fibroblast cells
Procedure: (§7) 2.5×10^4 cells/ml of mouse fibroblast cells 3T3 were cultured in gelatin coated plates in Dulbecco's Modified Eagle Medium (DMEM) supplemented with 10% fetal bovine serum (FBS) and 1% penicillin/streptomycin (Gibco) to reach 100% confluent. The cells were then maintained at 100% confluency by supplementing with fresh media in a 37° C. incubator with 5% CO2 for 3 days. For induction, cells were then cultured in DMI Induction Media (which is DMEM supplemented with 10% fetal bovine serum, 1% penicillin/streptomycin, 0.1% 3-isobutyl-1-methylxanthine (sigma), 0.1% insulin (sigma) and 0.1% dexamethasone (sigma)) for 48 hours. The cells were then cultured in Insulin Induction Media (which is DMEM supplemented with 10% fetal bovine serum, 1% penicillin/streptomycin and 0.1% insulin). The insulin induction media was changed every 2 days until the cells were differentiated to adipose cells.
(§8) A D-form BR peptide with the sequence of [sequence] was tagged to a fat tissue targeting peptide of the sequence [sequence] (ATS peptide, SEQ ID NO: 39) to generate the ATS-BRD peptide of the sequence [sequence]([sequence])D (SEQ ID NO: 40). Both undifferentiated 3T3 cells and differentiated adipose cells were treated with the ATS-BRD peptide. ATS-tagged KLAD peptide was used as a positive control.

[8] = test system: differentiated adipose cells (from 3T3)
Procedure: as §7, §8

[9] = test system: HCT116 (p53 KO) cells; assay: Cell viability (Cell-Titer Glo) in HCT116 (p53 KO); type: cell-based, human; settings: overnight, various concentrations
Procedure: as §1, §2

[10] = test system: HCT116 (p53 WT) cells; assay: Cell viability (Cell-Titer Glo) in HCT116 (p53 WT); type: cell-based, human; settings: overnight, various concentrations
Procedure: as §1, §2

[11] = target: T1, NPM (Homo sapiens, UniProt P06748); assay: Immunofluorescence of NPM sub-cellular localization, HCT116 (p53 KO); type: cell-based; settings: 30 μM
T1 construct: FGF-tagged BR peptide alters the sub-cellular localization and protein level of endogenous NPM; endogenous in cells; host or cells: HCT116 (p53 WT) and HCT116 (p53 KO)
T1 sequence (P06748 whole entry): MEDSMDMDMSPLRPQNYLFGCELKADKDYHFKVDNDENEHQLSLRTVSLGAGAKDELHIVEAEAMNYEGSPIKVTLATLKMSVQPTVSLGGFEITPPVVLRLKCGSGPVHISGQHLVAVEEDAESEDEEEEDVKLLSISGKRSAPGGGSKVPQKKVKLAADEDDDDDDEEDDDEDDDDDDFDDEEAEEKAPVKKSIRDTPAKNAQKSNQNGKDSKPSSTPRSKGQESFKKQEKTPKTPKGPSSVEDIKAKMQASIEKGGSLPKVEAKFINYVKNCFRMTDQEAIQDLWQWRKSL
Procedure: (§5) (A) representative immunofluorescence images showing the sub-cellular localization of α-NPM (bar represents 10 μm). HCT116 (p53 WT) and HCT116 (p53KO) cells were cultured on glass slides overnight, treated with FGF-X13 or FGF-BR (30 μM). Cells treated with FGF-X13 peptide or vehicle, DMSO (0.5%), was used as controls. Treated cells were immunostained with an anti-NPM antibody and analyzed by laser scanning confocal microscopy (Zeiss). Nuclei were visualized by staining with 4′,6-diamidino-2-phenylindole (DAPI).
(§6) For staining with anti-NPM, cultured cells were fixed in 10% neutral buffered formalin (Sigma) for 10 min, and then in methanol for 10 min, washed in PBS and incubated with blocking buffer (PBS containing 0.5% bovine serum albumin) for 1 hour prior to incubation with a mouse anti-NPM antibody (Invitrogen) in blocking buffer for overnight at 4° C. Cells were then incubated with Alexa Fluor 488-conjugated secondary antibody (Jackson Immuno Research Laboratories) for 1 hour, washed three times with PBS and counterstained with 4′,6-diamidino-2-phenylindole (DAPI)-containing mounting solution (Vectashield). Stained cells were examined with a LSM 510 confocal microscope using a 63× objective lens (Zeiss).

[12] = target: T1, NPM; assay: Immunofluorescence of NPM sub-cellular localization, HCT116 (p53 WT); type: cell-based; settings: 30 μM
Procedure: as §5, §6

[13] = test system: MDA-MB-231 cells; assay: Cell viability (Cell-Titer Glo) in MDA-MB-231 breast cancer cells; type: cell-based, human; settings: overnight, different concentrations
Procedure: as §1, §2

[14] = test system: MCF7 cells; assay: Cell viability (Cell-Titer Glo) in MCF7 breast cancer cells; type: cell-based, human; settings: overnight, different concentrations
Procedure: as §1, §2

CC(C)C[C@H](NC(=O)[C@H](C)NC(=O)[C@H](CC(C)C)NC(=O)[C@H](CC(C)C)NC(=O)[C@@H](NC(=O)[C@H](C)NC(=O)[C@@H]1CCCN1C(=O)[C@H](CC(C)C)NC(=O)[C@H](CC(C)C)NC(=O)[C@H](C)NC(=O)[C@@H](NC(=O)[C@H](C)NC(=O)[C@H](C)N)C(C)C)C(C)C)C(=O)N[C@@H](CC(C)C)C(=O)N[C@@H](C)C(=O)N1CCC[C@H]1C(=O)N[C@@H](CCC(N)=O)C(=O)N[C@@H](CC(C)C)C(=O)NCC(=O)N[C@@H](CCCCN)C(=O)N[C@@H](CCCCN)C(=O)N[C@@H](CCCCN)C(=O)N[C@@H](Cc1c[nH]cn1)C(=O)N[C@@H](CCCNC(=N)N)C(=O)N[C@@H](CCCNC(=N)N)C(=O)N[C@@H](CCCNC(=N)N)C(=O)N1CCC[C@H]1C(=O)N[C@@H](CO)C(=O)N[C@@H](CCCCN)C(=O)N[C@@H](CCCCN)C(=O)N[C@@H](CCCCN)C(=O)N[C@@H](CCCNC(=N)N)C(=O)N[C@@H](Cc1c[nH]cn1)C(=O)N[C@@H](Cc1c[nH]c2ccccc12)C(=O)O [FGF-BR] (H-AAVALLPAVLLALLAPQLGKKKHRRRPSKKKRHW-OH)
cytotoxicity (cell viability) [1]: Cytotoxicity was also observed | cytotoxicity (cell viability) [2]: Comparable cytotoxicity | cytotoxicity (cell viability) [3]: Comparable cytotoxicity

CC(C)C[C@H](NC(=O)[C@H](CCC(N)=O)NC(=O)CNC(=O)[C@H](CS)NC(=O)CNC(=O)[C@H](Cc1ccc(O)cc1)NC(=O)[C@H](Cc1c[nH]c2ccccc12)NC(=O)[C@@H]1CCCN1C(=O)[C@H](CO)NC(=O)[C@@H](NC(=O)[C@@H](NC(=O)[C@@H](N)CC(C)C)[C@@H](C)O)C(C)C)C(=O)NCC(=O)N[C@@H](CCCCN)C(=O)N[C@@H](CCCCN)C(=O)N[C@@H](CCCCN)C(=O)N[C@@H](Cc1c[nH]cn1)C(=O)N[C@@H](CCCNC(=N)N)C(=O)N[C@@H](CCCNC(=N)N)C(=O)N[C@@H](CCCNC(=N)N)C(=O)N1CCC[C@H]1C(=O)N[C@@H](CO)C(=O)N[C@@H](CCCCN)C(=O)N[C@@H](CCCCN)C(=O)N[C@@H](CCCCN)C(=O)N[C@@H](CCCNC(=N)N)C(=O)N[C@@H](Cc1c[nH]cn1)C(=O)N[C@@H](Cc1c[nH]c2ccccc12)C(=O)O [LTV-BR] (H-LTVSPWYGCGQLGKKKHRRRPSKKKRHW-OH)
cytotoxicity (cell viability) [2]: does not show such non-specific cytotoxicity | cytotoxicity fluorescence [4]: significant cytotoxic effect

CC(C)C[C@H](NC(=O)[C@H](CCCCN)NC(=O)CNC(=O)[C@H](CS)NC(=O)CNC(=O)[C@H](Cc1ccc(O)cc1)NC(=O)[C@H](Cc1c[nH]c2ccccc12)NC(=O)[C@@H]1CCCN1C(=O)[C@H](CO)NC(=O)[C@@H](NC(=O)[C@@H](NC(=O)[C@@H](N)CC(C)C)[C@@H](C)O)C(C)C)C(=O)N[C@@H](C)C(=O)N[C@@H](CCCCN)C(=O)N[C@@H](CC(C)C)C(=O)N[C@@H](C)C(=O)N[C@@H](CCCCN)C(=O)N[C@@H](CCCCN)C(=O)N[C@@H](CC(C)C)C(=O)N[C@@H](C)C(=O)N[C@@H](CCCCN)C(=O)N[C@@H](CC(C)C)C(=O)N[C@@H](C)C(=O)N[C@@H](CCCCN)C(=O)O [LTV-KLA, reference compound] (H-LTVSPWYGCGKLAKLAKKLAKLAK-OH)
cytotoxicity (cell viability) [2]: non-specific killing

AAVALLPAVLLALLAP [FGF, cell membrane-translocating peptide derived from Kaposi fibroblast growth factor]
morphological changes [5]: No effects were detected | morphological changes [6]: No effects were detected

CKGGRAKDCGG(QLGKKKHRRRPSKKKRHW)D (CKGGRAKDCGG[dQ][dL]G[dK][dK][dK][dH][dR][dR][dR][dP][dS][dK][dK][dK][dR][dH][dW]; cysteine pairing not given here) [ATS-BRD]
cytotoxic effect (cell viability) [7]: no cytotoxic effect | cytotoxic effect (cell viability) [8]: significant cytotoxic effect

FGF-BR-ILAA: FGF-fused BR peptide with KHRR motif mutated to ILAA (AAVALLPAVLLALLAPQLGKKILAARPSKKKRHW)
cell death / cell viability [9]: still maintained its killing ability | cell death / cell viability [10]: still maintained its killing ability

FGF-BR-RRR12: FGF-fused BR peptide with all six HDM2 ubiquitinating lysine residues mutated to arginine (AAVALLPAVLLALLAPQLGRRRHRRRPSRRRRHW)
cell death / cell viability [9]: stronger cell toxicity when compared to the wild-type FGF-BR peptide | cell death / cell viability [10]: stronger cell toxicity when compared to the wild-type FGF-BR peptide

FGF-X13: negative control peptide, FGF-tagged X13 (AAVALLPAVLLALLAPMPFSTGKRIMLGE) [reference compound]
cell death / cell viability [9]: no effects | cell death / cell viability [10]: no effects | sub-cellular localization of NPM [11]: Normal nucleolar localization of NPM | sub-cellular localization of NPM [12]: Normal nucleolar localization of NPM

KLA (KLAKLAKKLAKLAK) [reference compound]
effect on cell viability [13]: non-specific killing

LTV-BR-RRR12: breast cancer targeting peptide LTV fused to BR-RRR12 (LTVSPWYGCGQLGRRRHRRRPSRRRRHW)
effect on cell viability [14]: anti-proliferation effects | effect on cell viability [13]: anti-proliferation effects

LTV-X13: LTV-tagged X13 negative control peptide (LTVSPWYGCGMPFSTGKRIMLGE) [reference compound]
effect on cell viability [14]: no effects were detected | effect on cell viability [13]: no effects were detected

QLGKKKHRRRPSKKKRHW (listed as Homo sapiens) [BR, untagged HEXIM1 basic region peptide]
effect on cell viability [14]: no effect on cell viability | effect on cell viability [13]: remained highly viable

QLGRRRHRRRPSRRRRHW (QLGRRRHRRRPSKKKRHW) [BR-RRR12, BR mutant in which all six HDM2 ubiquitinating lysine residues were mutated to arginine]
effect on cell viability [14]: no effect on cell viability | effect on cell viability [13]: remained highly viable

X13: untagged negative control peptide (MPFSTGKRIMLGE) [reference compound]
effect on cell viability [14]: no effect on cell viability | effect on cell viability [13]: no effect on cell viability
